Type in all cases: cell-based, human
For one assay, the system named is MEIS1 mRNA expression. As to the kind of experiment: MEIS1 mRNA expression assay (Quantigene Singleplex) in MOLM14 cells. As to conditions: 48 hours incubation. In a few lines: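 Read-out: MEIS1 transcript counts, background-subtracted and divided by RPL28, expressed as fold change over DMSO-treated cells, then dose-response modelled for IC50. MOLM14 cells (3,750/well) received graded compound for 48 h before lysis and QuantiGene hybridization at 55 °C.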

Another assay concerns MOLM14 cells. The assay can be described thus: Proliferation assay (spheroid confluence, 8 days), MOLM14. The following applies: Homo sapiens, MOLM-14, MOLM14; read-out: spheroid assay_MOLM14 IC50. In a few lines:
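Absolute IC50 derived from spheroid confluence imaged on day 8, scaled between DMSO (0%) and a cytotoxic low control such as 1 μM staurosporin, fitted with variable slope, bounds fixed at 0 and 100%. Seeding 200 cells/well (300 for KO-52), ultra-low attachment plates, 0.3% DMSO, 37° C.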

The next assay has as its system KO-52 cells. As to the kind of experiment: Proliferation assay (spheroid confluence, 8 days), KO-52 control cell line. The following applies: read-out: spheroid assay_KO-52 IC50. The method, then:
The anti-proliferative effect of menin/MLL protein/protein interaction inhibitor test compounds was assessed in human leukemia cell lines. The cell line MOLM14 harbors a MLL translocation and expresses the MLL fusion protein MLL-AF9, respectively, as well as the wildtype protein from the second allele. OCI-AML3 cells that carry the NPM1c gene mutation were also tested. […] KO-52 was used as a control cell line containing two MLL (KMT2A) wildtype alleles in order to exclude compounds that display general cytotoxic effects.
MOLM14 cells were cultured in RPMI-1640 (Sigma Aldrich) supplemented with 10% heat-inactivated fetal bovine serum (HyClone), 2 mM L-glutamine (Sigma Aldrich) and 50 μg/ml gentamycin (Gibco). KO-52 and OCI-AML3 cell lines were propagated in alpha-MEM (Sigma Aldrich) supplemented with 20% heat-inactivated fetal bovine serum (HyClone), 2 mM L-glutamine (Sigma Aldrich) and 50 μg/ml gentamycin (Gibco).
In order to assess the anti-proliferative effects, 200 MOLM14 cells, 200 OCI-AML3 cells or 300 KO-52 cells were seeded in 200 μl media per well in 96-well round bottom, ultra-low attachment plates (Costar, catalogue number 7007). Cell seeding numbers were chosen based on growth curves to ensure linear growth throughout the experiment. Test compounds were added at different concentrations and the DMSO content was normalized to 0.3%. Cells were incubated for 8 days at 37° C. and 5% CO2. Spheroid like growth was measured in real-time by live-cell imaging (IncuCyteZOOM, Essenbio, 4×objective) acquiring images at day 8. Confluence (%) as a measure of spheroid size was determined using an integrated analysis tool.
In order to determine the effect of the test compounds over time, the confluence in each well as a measure of spheroid size, was calculated. Confluence of the highest dose of a reference compound was used as baseline for the LC (Low control) and the confluence of DMSO treated cells was used as 0% cytotoxicity (High Control, HC).
Absolute IC50 values were calculated as percent change in confluence as follows:
LC=Low Control: cells treated with e.g. 1 μM of the cytotoxic agent staurosporin, or e.g. cells treated with a high concentration of an alternative reference compound
HC=High Control: Mean confluence (%) (DMSO treated cells)
% Effect=100−(100*(Sample−LC)/(HC−LC))
GraphPad Prism (version 7.00) was used to calculate the IC50. Dose-response equation was used for the plot of % Effect vs Log10 compound concentration with a variable slope and fixing the maximum to 100% and the minimum to 0%.

Like-named read-outs stand apart in the source and are kept apart here.

What is called IC50 is the midpoint of a concentration-inhibition curve. `Cc1cncc2c1c(CC1CCN(CC3CCN(C(=O)[C@H](C)O)CC3)C1)cn2-c1ccc(F)cc1C(=O)N(C)C(C)C` (single isomer, unassigned) [Compound 86]: the IC50 with MEIS1 mRNA expression (Homo sapiens, MOLM-14, 48 h) was 21 nM; in the assay on MOLM14 cells it was 10 nM; in the assay on KO-52 cells (Homo sapiens), 1300 nM.

For the compound `CC(=O)N1CCC(C(C)N2CCC(Cc3cn(-c4ccc(F)cc4C(=O)N(C)C(C)C)c4cncc(C)c34)C2)CC1` (single isomer, unassigned) [Compound 116a], the IC50 is 5 nM in the assay with MEIS1 mRNA expression (Homo sapiens, MOLM-14, 48 h); 8 nM in the assay with MOLM14 cells; 3800 nM in the assay on KO-52 cells (Homo sapiens).

As to `COCC(=O)N1CCC(CN2CC[C@@H](Cc3cn(-c4ccc(F)cc4C(=O)N(C)C(C)C)c4cncc(C)c34)C2)CC1` (single isomer, unassigned) [Compound 136], the IC50 with MEIS1 mRNA expression (Homo sapiens, MOLM-14, 48 h) was 71 nM; with MOLM14 cells it was 28 nM; in the assay on KO-52 cells (Homo sapiens), 1400 nM.

With `CC(=O)N1CCC(CN2CC[C@@H](Cc3cn(-c4ccc(F)cc4C(=O)N4[C@@H](C)CC[C@@H]4C)c4cncc(C)c34)C2)CC1` [Compound 316], the IC50 with MEIS1 mRNA expression (Homo sapiens, MOLM-14, 48 h) is 29 nM; in the assay on MOLM14 cells it was 12 nM; with KO-52 cells (Homo sapiens), 8900 nM.

With `CNC(=O)N1CCC(CN2CCC(Cc3cn(-c4ccc(F)cc4C(=O)N(C)C(C)C)c4cncc(C)c34)CC2)CC1` [Compound 202], the IC50 in the assay on MEIS1 mRNA expression (Homo sapiens, MOLM-14, 48 h) worked out at 25 nM; with MOLM14 cells, 7 nM; in the assay with KO-52 cells (Homo sapiens), 3400 nM.

Consider `Cc1cncc2c1c(C[C@@H]1CCN([C@H](C)C3CCOCC3)C1)cn2-c1ccc(F)cc1[S@](=N)(=O)C(C)C` (single isomer, unassigned) [Compound 180a], for which the IC50 in the assay with MEIS1 mRNA expression (Homo sapiens, MOLM-14, 48 h) worked out at 117 nM; in the assay with MOLM14 cells, 39 nM; in the assay with KO-52 cells (Homo sapiens), 7200 nM.

In the case of `Cc1cncc2c1c(C[C@@H]1CCN(CC3CCOCC3)C1)cn2-c1ccc(F)cc1S(=N)(=O)C(C)C` (mixture of isomers) [Compound 78], the IC50 in the assay on MEIS1 mRNA expression (Homo sapiens, MOLM-14, 48 h) turned out to be 327 nM; with MOLM14 cells, 111 nM; with KO-52 cells (Homo sapiens), 8400 nM.

Take `Cc1cncc2c1c(C[C@@H]1CCN(CC3CCNC(=O)C3)C1)cn2-c1ccc(F)cc1C(=O)N(C)C(C)C` (mixture of isomers) [Compound 212]: the 50% inhibitory concentration (IC50) is 322 nM in the assay with MEIS1 mRNA expression (Homo sapiens, MOLM-14, 48 h); 305 nM in the assay on MOLM14 cells; above 15000 nM in the assay on KO-52 cells (Homo sapiens).

In the case of `CC(=O)NC1CCC(N2CC[C@H](Cc3cn(-c4ccc(F)cc4C(=O)N(C)C(C)C)c4cncc(C)c34)C2)CC1` (stereo partly drawn) [Compound 211], the IC50 is 113 nM in the assay on MEIS1 mRNA expression, 169 nM in the assay on MOLM14 cells and above 15000 nM in the assay on KO-52 cells (Homo sapiens).

On to `Cc1cncc2c1c(CC1CCN(CC3CCN(C(=O)N4CCOCC4)CC3)CC1)cn2-c1ccc(F)cc1C(=O)N(C)C(C)C` [Compound 204], for which the IC50 in the assay with MEIS1 mRNA expression (Homo sapiens, MOLM-14, 48 h) is 79 nM; with MOLM14 cells it was 16 nM; in the assay with KO-52 cells (Homo sapiens), 1600 nM.

Consider `Cc1cncc2c1c(C[C@@H]1CCN(CC3CCC(O)CC3)C1)cn2-c1ccc(F)cc1C(=O)N(C)C(C)C` (single isomer, unassigned) [Compound 205a], for which the IC50 amounted to 21 nM in the assay on MEIS1 mRNA expression (Homo sapiens, MOLM-14, 48 h); 23 nM in the assay with MOLM14 cells; 7000 nM in the assay with KO-52 cells.

On to `CC(=O)N1CCC(CN2CC[C@@H](Cc3cn(-c4ccc(F)cc4C(=O)N4CCC5CC54)c4cncc(C)c34)C2)CC1` (stereo partly drawn) [Compound 311], for which the IC50 amounted to 18 nM with MEIS1 mRNA expression (Homo sapiens, MOLM-14, 48 h); 17 nM in the assay on MOLM14 cells; 5200 nM in the assay with KO-52 cells (Homo sapiens).

For the compound `COCCN(C)CCCC(C(C)C)N1CC[C@H](Cc2cn(-c3ccc(F)cc3C(=O)N(C)C(C)C)c3cncc(Cl)c23)C1` (stereo partly drawn) [Compound 4], the IC50 in the assay with MEIS1 mRNA expression (Homo sapiens, MOLM-14, 48 h) is 11 nM; in the assay on MOLM14 cells, 5 nM; with KO-52 cells (Homo sapiens), 3000 nM.

Turning to `CC(=O)N1CCC(CN2CCC(Cc3cn(-c4ccc(F)cc4C(=O)N(C)C(C)C)c4cncc(C)c34)C2C)CC1` (stereo not drawn) [Compound 228], the IC50 with MEIS1 mRNA expression is 8 nM; in the assay on MOLM14 cells, 10 nM; in the assay with KO-52 cells (Homo sapiens) it was 5800 nM.

With `CN=S(=O)(c1cc(F)ccc1-n1cc(CC2CCN(CC3CCOCC3)C2)c2c(C)cncc21)C(C)C` (stereo not drawn) [Compound 77], the half-inhibitory concentration (IC50) was 136 nM with MEIS1 mRNA expression (Homo sapiens, MOLM-14, 48 h); 90 nM in the assay on MOLM14 cells; 5800 nM in the assay with KO-52 cells (Homo sapiens).

Source of the values: patent US20230250096A1, “SUBSTITUTED PHENYL-1H-PYRROLO[2,3-c] PYRIDINE DERIVATIVES” (Janssen Pharmaceutica NV, priority 2021, published 2023).
